Experimental data from patent US10391101B2, “Derivatives of 7-fluoro-8-chloro-5H-dibenzo [B,E,] [1,4] diazepine and use thereof” (VALENTEK LLC, priority 2014, dated 2019).

Tests used:
D4 dopamine receptors = biological target: T1, D4 dopamine receptors (Homo sapiens, UniProt P21917); assay: D4 dopamine receptor antagonism, Kb from IC50 (cAMP level); type: cell-based; details: for Kb: determined by IC50 values in the set-up of antagonism; for Therapeutic window (Kb, D2/Kb, D4): ratio of the applicant's Kb values
T1 sequence (P21917 1-419): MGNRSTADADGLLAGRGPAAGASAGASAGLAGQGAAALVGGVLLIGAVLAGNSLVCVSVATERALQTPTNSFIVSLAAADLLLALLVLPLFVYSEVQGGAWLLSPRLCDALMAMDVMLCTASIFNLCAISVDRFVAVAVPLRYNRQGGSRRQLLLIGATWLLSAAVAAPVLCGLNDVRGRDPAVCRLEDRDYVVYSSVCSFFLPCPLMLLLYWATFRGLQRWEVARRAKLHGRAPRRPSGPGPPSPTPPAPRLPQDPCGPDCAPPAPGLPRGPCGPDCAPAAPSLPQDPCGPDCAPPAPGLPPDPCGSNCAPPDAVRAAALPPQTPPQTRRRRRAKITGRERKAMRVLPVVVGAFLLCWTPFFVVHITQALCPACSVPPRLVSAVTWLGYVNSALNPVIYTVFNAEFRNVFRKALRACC
Method: (§1) The response on cells expressing D2 receptors was determined according to the change in the cell conductibility induced by redistribution of intracellular calcium. For D4 receptor the level of second messenger—cAMP was taken as the criterion.

[1] = Sedation study, total distance traveled; details: CF-1 mice
[2] = Metabolism and distribution of fluoroclozapine in tissues; details: rats, single oral fluoroclozapine 10 mg/kg
[3] = test system: family of adrenergic receptors; assay: Panel of G-protein-coupled receptors, adrenergic receptors; details: GPCR panel
Excerpt: In conjunction with the results of preliminary toxicological studies, the data indicates a reduction in the risk of autonomic dysfunctions, such as tachysystole, orthostatism, accommodation disorder, dysfunction of gastrointestinal tract and urination, weight gain, lack of coordination of muscle movements.

H4 receptor = H4 receptor (Homo sapiens, UniProt Q9H3N8); assay: H4 histamine receptor functional experiment, agonism set-up (cell conductibility); type: cell-based
H4 receptor, sequence (Q9H3N8 whole entry): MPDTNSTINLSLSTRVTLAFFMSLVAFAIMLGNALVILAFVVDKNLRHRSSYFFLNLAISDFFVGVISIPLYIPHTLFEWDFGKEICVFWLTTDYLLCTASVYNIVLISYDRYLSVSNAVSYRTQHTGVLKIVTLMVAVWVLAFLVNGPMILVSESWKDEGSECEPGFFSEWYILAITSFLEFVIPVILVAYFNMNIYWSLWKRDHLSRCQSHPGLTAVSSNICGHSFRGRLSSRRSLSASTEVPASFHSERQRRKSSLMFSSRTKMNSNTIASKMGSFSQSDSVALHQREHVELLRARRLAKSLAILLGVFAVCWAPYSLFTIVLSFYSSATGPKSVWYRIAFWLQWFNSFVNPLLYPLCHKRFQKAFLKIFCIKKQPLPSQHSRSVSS
Method: (§2) The functional activity of compounds on the H4 receptor was determined according to the change in the cell conductibility induced by redistribution of intracellular calcium. The activity for H1 receptor was determined according to the fluorescence of Fluo-4 NW indicator introduced into cells induced by the change in Ca2+ ion concentration in the cytosol.
(§3) Functional experiments were performed in the set-up of agonism and antagonism. In the set-up of agonism the test substance was added directly to the cells expressing the receptor and was determined as the dependence of the response intensity on the substance concentration. Concentration at which the half-peak response (EC50) could be reached served as a measure of activity of agonists.
(§4) In the set-up of antagonism, the ability of test substances to block the action of agonists was assessed. For this purpose, cells were incubated with the test substances, then the reference agonists were added in the system and the functional response was determined.

M4 muscarinic receptor = biological target: T2, M4 muscarinic receptor (Homo sapiens, UniProt P08173); assay: cell-based; details: for EC50: M4, agonism set-up; for IC50: M4, antagonism set-up
T2 sequence (P08173 1-479): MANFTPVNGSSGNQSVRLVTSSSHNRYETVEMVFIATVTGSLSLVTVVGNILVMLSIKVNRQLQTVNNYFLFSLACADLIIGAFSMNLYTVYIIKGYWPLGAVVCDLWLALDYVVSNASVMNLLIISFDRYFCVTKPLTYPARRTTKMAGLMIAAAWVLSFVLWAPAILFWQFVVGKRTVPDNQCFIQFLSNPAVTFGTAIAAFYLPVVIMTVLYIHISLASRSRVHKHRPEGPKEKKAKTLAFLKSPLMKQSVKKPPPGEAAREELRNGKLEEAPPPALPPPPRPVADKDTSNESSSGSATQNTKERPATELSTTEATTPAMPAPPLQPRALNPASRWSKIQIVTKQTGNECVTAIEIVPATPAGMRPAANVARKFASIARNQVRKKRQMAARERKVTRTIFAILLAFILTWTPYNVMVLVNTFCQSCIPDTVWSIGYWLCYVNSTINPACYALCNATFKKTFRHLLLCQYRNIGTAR
Method: as §3, §4
The curves of dependence of functional response on the concentration of compounds for the receptor were made; the level of second messenger—cAMP determined according to the fluorescence after the lysis of cell expressing the receptor was taken as a criterion.

H1 receptor = H1 receptor (Homo sapiens, UniProt P35367); assay: H1 histamine receptor functional experiment, antagonism set-up (Fluo-4 NW Ca2+ fluorescence); type: cell-based
H1 receptor, sequence (P35367 whole entry): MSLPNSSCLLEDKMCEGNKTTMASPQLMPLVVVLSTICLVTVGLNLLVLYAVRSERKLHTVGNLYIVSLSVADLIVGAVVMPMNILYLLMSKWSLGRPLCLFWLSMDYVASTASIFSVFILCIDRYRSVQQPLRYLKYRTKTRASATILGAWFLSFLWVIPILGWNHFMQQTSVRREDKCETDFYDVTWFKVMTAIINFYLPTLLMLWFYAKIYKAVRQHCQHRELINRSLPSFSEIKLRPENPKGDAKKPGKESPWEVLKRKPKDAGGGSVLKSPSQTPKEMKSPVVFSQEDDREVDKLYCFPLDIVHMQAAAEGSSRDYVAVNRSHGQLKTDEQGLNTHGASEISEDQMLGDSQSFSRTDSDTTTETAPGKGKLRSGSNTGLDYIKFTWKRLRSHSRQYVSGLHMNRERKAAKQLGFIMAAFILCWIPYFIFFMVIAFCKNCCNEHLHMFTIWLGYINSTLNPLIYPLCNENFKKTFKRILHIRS
Method: as §2, §3, §4

M1 receptors = biological target: T3, M1 receptors (Homo sapiens, UniProt P11229); assay: M1 receptor activation functional study (Fluo-4 NW Ca2+ fluorescence); type: cell-based; details: concentration-response curves, FIG. 2
T3 sequence (P11229 1-460): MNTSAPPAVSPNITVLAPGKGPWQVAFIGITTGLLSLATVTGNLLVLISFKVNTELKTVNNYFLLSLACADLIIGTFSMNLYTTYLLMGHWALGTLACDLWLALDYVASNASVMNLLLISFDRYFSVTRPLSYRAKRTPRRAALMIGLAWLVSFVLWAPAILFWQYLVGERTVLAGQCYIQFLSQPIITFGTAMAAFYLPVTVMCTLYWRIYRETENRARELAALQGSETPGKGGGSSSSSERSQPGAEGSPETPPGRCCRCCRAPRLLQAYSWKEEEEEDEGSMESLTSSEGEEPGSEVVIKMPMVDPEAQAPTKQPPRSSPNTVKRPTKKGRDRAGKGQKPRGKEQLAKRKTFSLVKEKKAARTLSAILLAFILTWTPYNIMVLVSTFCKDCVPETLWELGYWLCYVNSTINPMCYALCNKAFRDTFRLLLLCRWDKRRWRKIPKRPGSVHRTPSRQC
Method: The activity was determined according to the fluorescence of Fluo-4 NW indicator introduced into cells induced by the change in Ca2+ ion concentration in the cytosol.

D2 dopamine receptors = D2 dopamine receptors (Homo sapiens, UniProt P14416); assay: cell-based; details: determined by IC50 values in the set-up of antagonism
D2 dopamine receptors, sequence (P14416 whole entry): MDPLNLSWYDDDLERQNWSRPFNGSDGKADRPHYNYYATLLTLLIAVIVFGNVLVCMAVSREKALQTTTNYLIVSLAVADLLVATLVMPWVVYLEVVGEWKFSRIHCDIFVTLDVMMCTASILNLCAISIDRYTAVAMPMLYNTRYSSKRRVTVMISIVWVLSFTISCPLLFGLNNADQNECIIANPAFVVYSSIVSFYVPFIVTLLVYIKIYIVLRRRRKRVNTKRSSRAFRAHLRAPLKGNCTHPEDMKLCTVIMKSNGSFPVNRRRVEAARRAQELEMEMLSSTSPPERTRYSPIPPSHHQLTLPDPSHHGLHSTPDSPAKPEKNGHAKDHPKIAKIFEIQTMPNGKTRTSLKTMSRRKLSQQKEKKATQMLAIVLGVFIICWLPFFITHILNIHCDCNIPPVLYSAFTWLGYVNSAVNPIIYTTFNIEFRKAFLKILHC
Method: as §1

[4] = Sub-chronic toxicity, morphological parameters of blood (neutrophil kinetics); type: in vivo; details: rats, intragastric 5 mg/kg daily for 28 days
Excerpt: The positive effect of the introduction of fluorine has been observed in pre-clinical studies of sub-chronic toxicity. […]. Increase in the number of neutrophils has been observed among rats after administration of aminoglutethimide, which also involves a high risk of agranulocytosis (Ng, W. et. al., Chem Res Toxicol, 2013, 26, 1272-81). Thus changes in the kinetics of neutrophils after intake of the medication can serve as a biomarker to predict the risk of agranulocytosis.
The neutrophil kinetics has been studied within comparative tests of sub-chronic toxicity. Studies have been conducted using rats upon intragastric administration of the substance at a dose of 5 mg/kg. The test substances were administered daily for 28 days. Each experimental group was composed of 10 animals of each sex.

[5] = Prepulse inhibition of acoustic startle response, ketamine-induced deficit; details: mice, ketamine 50 mg/kg i.p.
[6] = 5-oxytriptophan hyperkinesia (head twitches); type: in vivo; details: mice, intragastric 1.0-10.0 mg/kg, 5-oxytriptophan 300 mg/kg i.p.
Method: It is known that the precursor of serotonin (5-oxytriptophan, 5-OT) causes a specific hyperkinesia in mice in the form of head-twitching with average duration of 30-60 minutes, which is explained by the activation of serotonergic system of the CNS. […] Each experimental group included 10 male mice weighing 20-22 g. The test substances were administered intragastrically at 1.0, 2.5, 5.0 and 10.0 mg/kg 30 minutes before the intraperitoneal administration of 5-oxytriptophan at a dose of 300 mg/kg. We counted the number of head twitches per 1 minute at intervals of 10 minutes during 60 minutes.

| SMILES | Kb (D4 dopamine receptors) [nM] | Therapeutic window (Kb, D2/Kb, D4) (D4 dopamine receptors) | Concentrations of parent and metabolite in the brain [2] | Activity in relation to adrenergic receptors [3] | EC50 (H4 receptor) [nM] | EC50 (M4 muscarinic receptor) [nM] | IC50 (M4 muscarinic receptor) [nM] | IC50 (H1 receptor) [nM] | Functional response on M1 receptor (agonism) (M1 receptors) | Kb (D2 dopamine receptors) [nM] | Basophils [4] [%] | ESR [4] [mm/h] | Eosinophils [4] [%] | Hemoglobin [4] [g/L] | Ht [4] [%] | Lymphocytes [4] [%] | MCH [4] [pg] | MCHC [4] [g/L] | MCV [4] [fL] | Metamyelocytes [4] [%] | further results |
| --- | --- | --- | --- | --- | --- | --- | --- | --- | --- | --- | --- | --- | --- | --- | --- | --- | --- | --- | --- | --- | --- |
| Fc1cc2c(cc1Cl)N=C(N1CCNCC1)c1ccccc1N2 [Desmethylfluoroclozapine, 11-(piperazine-1-yl)-7-fluoro-8-chloro-5H-dibenzo[b,e][1,4]diazepine] | 350 | 1.6 | consistent | relatively weak activity | 2000 | 3200 | > 10000 | 61 | is an agonist and causes a significant response in the therapeutic concentration range | 550 | 0.6 ± 0.3 | 4.2 ± 0.4 | 1.0 ± 0.5 | 153.4 ± 2.4 | 42.5 ± 0.5 | 66.6 ± 2.8 | 18.4 ± 0.1 | 360.8 ± 2.2 | 50.9 ± 0.2 | 0.0 ± 0.0 | Sedation: decrease in motor activity ([1]; oral, dose of 10 mg/kg): negligible decrease in motor activity; Activating concentration relative to that of norclozapine (M4 muscarinic receptor; M4, agonism): 30 times; Monocytes [4]: 6.2 ± 1.0%; Myelocytes [4]: 0.0 ± 0.0%; Number of circulating neutrophils in peripheral blood versus control group [4]: did not differ so much different from that of the control group; PLT count [4]: 653.4 ± 29.8 10^9/l; Plasma cells [4]: 0.0 ± 0.0%; RBC count [4]: 8.35 ± 0.07 10^12/l; Rt [4]: 75.6 ± 3.1 10^9/l; Segmented neutrophils [4]: 21.4 ± 1.7%; Stab neutrophiles [4]: 4.2 ± 0.4%; WBC count [4]: 11.7 ± 0.9 10^9/l |
| CN1CCN(C2=Nc3cc(Cl)c(F)cc3Nc3ccccc32)CC1 [Fluoroclozapine, 11-(4-methylpiperazine-1-yl)-7-fluoro-8-chloro-5H-dibenzo[b,e][1,4]diazepine] | 50 | 5.2 | consistent | relatively weak activity | 170 | 16000 | 4800 | 18 | virtually no effect on M1 receptors | 260 | 1.0 ± 0.3 | 4.2 ± 0.4 | 0.8 ± 0.4 | 155.4 ± 2.1 | 43.2 ± 0.7 | 67.8 ± 2.4 | 18.4 ± 0.1 | 359.4 ± 1.9 | 51.3 ± 0.5 | 0.0 ± 0.0 | Sedation: total distance traveled by animals ([1]; oral 1, 5 and 10 mg/kg): significantly lower; Metabolism [2]: is metabolized to desmethylfluoroclozapine in rats; Restoration of PPI at a dose of 10 mg/kg ([5]; 10 mg/kg): comparable to clozapine activity at a dose of 5 mg/kg; Restoration of the PPI deficit caused by ketamine ([5]; doses of 5 and 10 mg/kg): statistically significant dose-dependent restoration of the PPI deficit; Inhibition of twitches induced by 5-OT [6]: most evident inhibition of twitches; Monocytes [4]: 6.4 ± 0.5%; Myelocytes [4]: 0.0 ± 0.0%; Number of circulating neutrophils in peripheral blood versus control group [4]: did not differ so much different from that of the control group; PLT count [4]: 666.4 ± 26.0 10^9/l; Plasma cells [4]: 0.0 ± 0.0%; RBC count [4]: 8.43 ± 0.07 10^12/l; Rt [4]: 77.6 ± 4.6 10^9/l; Segmented neutrophils [4]: 20.8 ± 1.5%; Stab neutrophiles [4]: 3.2 ± 0.4%; WBC count [4]: 11.2 ± 0.8 10^9/l |
